# Test results from patent publication US5942248A, “Pharmaceutical composition containing a low detergent effect bile salt and an active compound that undergoes biliary excretion and/or enterohepatic recycling” (priority 1992, dated 1999).
# Where two headings read alike, the source gives them in different places.
# Tests used:
# [1] = cited from earlier work
# [2] = Stability of indomethacin in stored plasma samples; format: physicochemical; conditions: -20° C.
# Method: The medication was taken with approx. 250 ml of boiled tap water. The zero time blood samples were taken within a 5 min period preceding the administration of the medication. Subsequent samples were taken at 0.5, 1.0, 1.5, 2.0, 2.5, 3.0, 4.0, 6.0, 8.0, 10.0 and 12.0 h. Blood samples were collected into lithium heparin tubes, gently mixed and centrifuged at 2.0×10^3 g.min within 15min of collection. Separated plasma was transferred into a clean tube and stored at -20° C. After a one week interval, the subjects received the alternative medication and the blood sampling protocol was repeated. Plasma samples were analysed by the HPLC method described by S. K. Cole et al (1992) Int. J. Pharm. 80, 63-73.
# [3] = pH 7.3 buffer, 37° C.; cited from earlier work
# [4] = cited from earlier work; remark: listed apart in the source
# [5] = cited from earlier work; remark: listed apart in the source
# [6] = test system: isolated perfused rat liver; conditions: cited from earlier work
# gastrointestinal mucosa = conditions: in vivo; cited from earlier work
# [7] = aqueous solution; cited from earlier work
# [8] = test system: isolated perfused rat liver; conditions: cited from earlier work; remark: listed apart in the source
# [9] = test system: isolated human hepatocytes; conditions: cited from earlier work
# [10] = test system: subjects receiving gallstone dissolution therapy; conditions: rather than chenodeoxycholate; cited from earlier work
# rats = conditions: induced by more detergent dihydroxy and trihydroxy bile acids; cited from earlier work
# patients = conditions: chronic active hepatitis, primary biliary cirrhosis, cystic fibrosis; cited from earlier work
# [11] = test system: heart transplant patients; conditions: cyclosporine-induced cholestasis; cited from earlier work
# human erythrocytes = conditions: cited from earlier work
# [12] = test system: mono-layer cultures of isolated rat hepatocytes; conditions: cited from earlier work
structure (smiles),measurement,setting,value
CC1(C)C(/C=C/C=C/C=C/C=C2\N(CCCCS(=O)(=O)O)c3ccc4ccccc4c3C2(C)C)=[N+](CCCCS(=O)(=O)[O-])c2ccc3ccccc3c21 [indocyamine green],biliary excretion with exogenously added bile acids,[1]; variety of animal species,increased the biliary excretion
COc1ccc2c(c1)c(CC(=O)O)c(C)n2C(=O)c1ccc(Cl)cc1 [indomethacin],degradation of indomethacin in stored plasma,[2],No degradation of indomethacin was detected
same,dissolution in presence of sodium deoxycholate and sodium cholate,[3],enhance the dissolution
same,biliary clearance / enterohepatic circulation (in words),[4]; in vivo,Extensive clearance of intact indomethacin into the bile
same,plasma clearance,[4]; in vivo,low plasma clearance
same,plasma half-life,[4]; in vivo,short plasma half-life
same,route of excretion,[4]; in vivo,mainly excreted via the hepato-biliaryroute
same,volume distribution,[4]; in vivo,low volume distribution
same,extent of enterohepatic recycling,[4]; man and animals,21-41%
same,absorption rate in vivo with bile acids,[5],did not translate into an enhanced absorption rate in vivo
same,bioavailability with exogenously added bile acids,[5]; in vivo,increased the bioavailability of indomethacin
same,inter-subject variation with exogenously added bile acids,[5]; in vivo,decreasing inter-subject variation
CCC(Cc1c(I)cc(I)c(N)c1I)C(=O)O (centres unmarked) [iopanoic acid],biliary excretion with exogenously added bile acids,[1]; in vivo,increased the biliary excretion
CC1(C)S[C@@H]2[C@H](NC(=O)[C@H](N)c3ccccc3)C(=O)N2[C@H]1C(=O)O [ampicillin],biliary excretion with exogenously added bile acids,[1]; variety of animal species,increased the biliary excretion
CN(C)CCCN1c2ccccc2Sc2ccc(Cl)cc21 [chlorpromiazine],cholestasis caused,[6],drug-induced cholestasis
CC(=O)Oc1ccccc1C(=O)O [aspirin],gastrointestinal bleeding / lesions,gastrointestinal mucosa,gastrointestinal bleeding
O=C1OC(c2ccc(O)c(S(=O)(=O)O)c2)(c2ccc(O)c(S(=O)(=O)O)c2)c2c(Br)c(Br)c(Br)c(Br)c21 [bromosulphthalein],biliary excretion with exogenously added bile acids,[1]; variety of animal species,increased the biliary excretion
C=CC1=C(C)/C(=C/c2[nH]c(Cc3[nH]c(/C=C4\NC(=O)C(C)=C4C=C)c(C)c3CCC(=O)O)c(CCC(=O)O)c2C)NC1=O [bilirubin],biliary excretion with exogenously added bile acids,[1]; in vivo,increased the biliary excretion
C[C@]12CC[C@@H]3c4ccc(O)cc4CC[C@H]3[C@@H]1CC[C@@H]2O[C@@H]1O[C@H](C(=O)O)[C@@H](O)[C@H](O)[C@H]1O [estradiol-17-β-D-glucaronide],cholestasis caused,[6],drug-induced cholestasis
CN1C(C(=O)Nc2ccccn2)=C(O)c2ccccc2S1(=O)=O [piroxicam],gastrointestinal bleeding / lesions,gastrointestinal mucosa,gastrointestinal bleeding
CCCCC1C(=O)N(c2ccccc2)N(c2ccccc2)C1=O [phenylbutazone],dissolution in presence of sodium deoxycholate and sodium cholate,[3],enhance the dissolution
"C[C@H](CCC(=O)O)[C@H]1CC[C@H]2[C@@H]3[C@@H](O)C[C@@H]4C[C@H](O)CC[C@]4(C)[C@H]3CC[C@]12C [ursodeoxycholate, Ursodeoxycholate]",CMC,[7],1 to 3 mM
same,detergent effect in isolated perfused rat liver,[8],lack of detergent effect
same,detergent effect in isolated human hepatocytes,[9],lack of detergent effect
same,gastrointestinal side-effects,[10],decreased incidence of gastrointestinal side-effects
same,hepatic enzyme levels in plasma,[10],lower hepatic intracellar enzyme levels
same,biliary excretion of membrane enzymes,rats,reduces the biliary excretion of membrane enzymes
same,measures of hepatic damage,patients,reverse measures of hepatic damage
same,plasma levels of liver enzymes and bilirubin,[11],reverse the elevated plasma levels of liver enzymes and bilirubin
same,prevention of toxicological effects of more detergent bile acids,human erythrocytes,prevent the toxicological effects of more detergent bile acids
same,prevention of toxicological effects of more detergent bile acids,[12],prevent the toxicological effects of more detergent bile acids
same,reversal of drug-induced cholestasis,[6]; caused by estradiol-17-β-D-glaucaronide and chlorpromazine,reverse drug-induced cholestasis
